# Test results published in US8877748B2, “Heterocyclic fused anthraquinone derivatives, manufacturing method and pharmaceutical composition using thereof” (National Defense Medical Center, priority 2012, dated 2014).
# Assays:
# [1] = tested on: T-47D; test: NCI one-dose screening, breast cancer T-47D; assay type: cell-based, human; conditions: T-47D
# [2] = tested on: M14; test: NCI one-dose screening, melanoma M14; assay type: cell-based, human; conditions: M14, 10 μM
# [3] = tested on: SN12C; test: NCI one-dose screening, renal cancer SN12C; assay type: cell-based, human; conditions: SN12C
# [4] = tested on: DU145; test: NCI one-dose screening, prostate cancer DU145; assay type: cell-based, human; conditions: DU145, 10 μM
# [5] = tested on: SF-539; test: NCI one-dose screening, CNS cancer SF-539; assay type: cell-based, human; conditions: SF-539, 10 μM
# [6] = tested on: MOLT-4; test: NCI one-dose screening, leukemia MOLT-4; assay type: cell-based, human; conditions: MOLT-4, 10 μM
# [7] = tested on: NCI-H322M; test: NCI one-dose screening, non-small cell lung cancer NCI-H322M; assay type: cell-based, human; conditions: Non-small cell lung cancer, NCI-H322M, 10 μM
# [8] = tested on: SK-MEL-5; test: NCI one-dose screening, melanoma SK-MEL-5; assay type: cell-based, human; conditions: SK-MEL-5, 10 μM
# [9] = tested on: MCF7; test: NCI one-dose screening, breast cancer MCF7; assay type: cell-based, human; conditions: MCF7, 10 μM
# [10] = tested on: KM12; test: NCI one-dose screening, colon cancer KM12; assay type: cell-based, human; conditions: KM12, 10 μM
# [11] = tested on: PC-3 prostate cancer cell line; test: SRB assay cell viability, PC-3 prostate cancer cell line; assay type: cell-based, human; conditions: Homo sapiens, PC-3 prostate cancer cell line, Table II prints no unit, μM printed, read-out: SRB assay: 50% inhibition of cancer cell proliferation of sample concentration (IC50) of PC-3 prostate cancer cell line
# [12] = tested on: MDA, -MB-435; test: NCI one-dose screening, breast cancer MDA, -MB-435; assay type: cell-based, human; conditions: Melanoma, MDA-MB-435, 10 μM
# [13] = tested on: SNB-19; test: NCI one-dose screening, CNS cancer SNB-19; assay type: cell-based, human; conditions: SNB-19, 10 μM
# [14] = tested on: OVCAR-5; test: NCI one-dose screening, ovarian cancer OVCAR-5; assay type: cell-based, human; conditions: OVCAR-5, 10 μM
# [15] = tested on: CCRF-CEM; test: NCI screening platform one-dose single concentration screening, leukemia CCRF-CEM; assay type: cell-based, human; conditions: CCRF-CEM
# [16] = tested on: UO-31; test: NCI one-dose screening, renal cancer UO-31; assay type: cell-based, human; conditions: UO-31, 10 μM
# [17] = tested on: LOX IMVI; test: NCI one-dose screening, melanoma LOX IMVI; assay type: cell-based, human; conditions: LOX IMVI
# [18] = tested on: MDA-MB-468; test: NCI one-dose screening, breast cancer MDA-MB-468; assay type: cell-based, human; conditions: MDA-MB-468, 10 μM
# [19] = tested on: OVCAR-3; test: NCI one-dose screening, ovarian cancer OVCAR-3; assay type: cell-based, human; conditions: OVCAR-3, 10 μM
# [20] = tested on: SR; test: NCI one-dose screening, leukemia SR; assay type: cell-based, human; conditions: SR
# [21] = tested on: HCT-15; test: NCI one-dose screening, colon cancer HCT-15; assay type: cell-based, human; conditions: HCT-15, 10 μM
# [22] = tested on: NCI-H460; test: NCI one-dose screening, non-small cell lung cancer NCI-H460; assay type: cell-based, human; conditions: NCI-H460, 10 μM
# [23] = tested on: PC-3; test: NCI one-dose screening, prostate cancer PC-3; assay type: cell-based, human; conditions: PC-3, 10 μM
# [24] = tested on: COLO 205; test: NCI one-dose screening, colon cancer COLO 205; assay type: cell-based, human; conditions: COLO 205, 10 μM
# [25] = tested on: NCI-H23; test: NCI one-dose screening, non-small cell lung cancer NCI-H23; assay type: cell-based, human; conditions: NCI-H23, 10 μM
# [26] = tested on: ACHN; test: NCI one-dose screening, renal cancer ACHN; assay type: cell-based, human; conditions: ACHN
# [27] = tested on: NCl/ADR-RES; test: NCI one-dose screening, breast cancer NCl/ADR-RES; assay type: cell-based, human; conditions: Ovarian cancer, NCI/ADR-RES
# [28] = tested on: BT-549; test: NCI one-dose screening, breast cancer BT-549; assay type: cell-based, human; conditions: BT-549, 10 μM
# [29] = tested on: NCI-H226; test: NCI one-dose screening, non-small cell lung cancer NCI-H226; assay type: cell-based, human; conditions: NCI-H226, 10 μM
# [30] = tested on: OVCAR-8; test: NCI one-dose screening, ovarian cancer OVCAR-8; assay type: cell-based, human; conditions: OVCAR-8, 10 μM
# [31] = tested on: HOP-62; test: NCI one-dose screening, non-small cell lung cancer HOP-62; assay type: cell-based, human; conditions: HOP-62, 10 μM
# [32] = tested on: human tumor cell lines; test: NCI one-dose screening, mean, delta and range of growth percent over all cell lines tested; assay type: cell-based
# [33] = tested on: MDA-MB-231/ATCC; test: NCI one-dose screening, breast cancer MDA-MB-231/ATCC; assay type: cell-based, human; conditions: MDA-MB-231/ATCC
# [34] = tested on: UACC-257; test: NCI one-dose screening, melanoma UACC-257; assay type: cell-based, human; conditions: UACC-257, 10 μM
# [35] = tested on: HCC-2998; test: NCI one-dose screening, colon cancer HCC-2998; assay type: cell-based, human; conditions: HCC-2998, 10 μM
# [36] = tested on: 786-O; test: NCI one-dose screening, renal cancer 786-O; assay type: cell-based, human; conditions: 786-0, 10 μM
# [37] = tested on: RXF, 393; test: NCI one-dose screening, renal cancer RXF, 393; assay type: cell-based, human; conditions: RXF 393, 10 μM
# [38] = tested on: CAKI-1; test: NCI one-dose screening, renal cancer CAKI-1; assay type: cell-based, human; conditions: CAKI-1, 10 μM
# [39] = tested on: SK-MEL-28; test: NCI one-dose screening, melanoma SK-MEL-28; assay type: cell-based, human; conditions: SK-MEL-28, 10 μM
# [40] = tested on: SNB-75; test: NCI one-dose screening, CNS cancer SNB-75; assay type: cell-based, human; conditions: SNB-75, 10 μM
# [41] = tested on: HS 578-T; test: NCI one-dose screening, breast cancer HS 578-T; assay type: cell-based, human; conditions: Breast cancer, HS 578T, 10 μM
# [42] = tested on: A549/ATCC; test: NCI one-dose screening, non-small cell lung cancer A549/ATCC; assay type: cell-based, human; conditions: A549/ATCC
# [43] = tested on: HCT-116; test: NCI one-dose screening, colon cancer HCT-116; assay type: cell-based, human; conditions: HCT-116, 10 μM
smiles,measurement,setting,value
"Cc1ccc(Nc2cc3c(c4nsnc24)C(=O)c2ccccc2C3=O)cc1 [C64, 4-(p-tolylamino)anthra[2,1-c][1,2,5] thiadiazol-6,11-dione]",Growth Percent (10 μM),[1],64.48%
same,Growth Percent (10 μM),[2],76.72%
same,Growth Percent (10 μM),[3],74.58%
same,Growth Percent (10 μM),[4],68.26%
same,Growth Percent (10 μM),[5],70.48%
same,Growth Percent (10 μM),[6],12.86%
same,Growth Percent (10 μM),[7],94.85%
same,Growth Percent (10 μM),[8],24.13%
same,Growth Percent (10 μM),[9],46.59%
same,Growth Percent (10 μM),[10],64.56%
same,IC50,[11],0.84 µM
same,Growth Percent (10 μM),[12],65.53%
same,Growth Percent (10 μM),[13],82.28%
same,Growth Percent (10 μM),[14],109.85%
same,Growth Percent (10 μM),[15],59.59%
same,Growth Percent (10 μM),[16],56.97%
same,Growth Percent (10 μM),[17],27.05%
same,Growth Percent (10 μM),[18],58.18%
same,Growth Percent (10 μM),[19],57.92%
same,Growth Percent (10 μM),[20],26.12%
same,Growth Percent (10 μM),[21],32.24%
same,Growth Percent (10 μM),[22],21.80%
same,Growth Percent (10 μM),[23],45.73%
same,Growth Percent (10 μM),[24],100.68%
same,Growth Percent (10 μM),[25],45.87%
same,Growth Percent (10 μM),[26],57.60%
same,Growth Percent (10 μM),[27],61.34%
same,Growth Percent (10 μM),[28],76.36%
same,Growth Percent (10 μM),[29],66.61%
same,Growth Percent (10 μM),[30],53.96%
same,Growth Percent (10 μM),[31],65.10%
same,"Growth Percent (10 μM), Delta",[32]; Delta over all cell lines tested,48.49%
same,"Growth Percent (10 μM), Mean",[32]; Mean over all cell lines tested,61.35%
same,"Growth Percent (10 μM), Range",[32]; Range over all cell lines tested,96.99%
same,Growth Percent (10 μM),[33],73.83%
same,Growth Percent (10 μM),[34],71.17%
same,Growth Percent (10 μM),[35],95.82%
same,Growth Percent (10 μM),[36],74.18%
same,Growth Percent (10 μM),[37],71.05%
same,Growth Percent (10 μM),[38],50.33%
same,Growth Percent (10 μM),[39],74.97%
same,Growth Percent (10 μM),[40],80.91%
same,Growth Percent (10 μM),[41],78.75%
same,Growth Percent (10 μM),[42],56.25%
same,Growth Percent (10 μM),[43],31.32%
